Test results reported in PMC12164952 (Science Advances, 2025).

T1: ABCB19 (Arabidopsis thaliana, UniProt Q9LJX0)
T1 sequence (Q9LJX0 1-1252): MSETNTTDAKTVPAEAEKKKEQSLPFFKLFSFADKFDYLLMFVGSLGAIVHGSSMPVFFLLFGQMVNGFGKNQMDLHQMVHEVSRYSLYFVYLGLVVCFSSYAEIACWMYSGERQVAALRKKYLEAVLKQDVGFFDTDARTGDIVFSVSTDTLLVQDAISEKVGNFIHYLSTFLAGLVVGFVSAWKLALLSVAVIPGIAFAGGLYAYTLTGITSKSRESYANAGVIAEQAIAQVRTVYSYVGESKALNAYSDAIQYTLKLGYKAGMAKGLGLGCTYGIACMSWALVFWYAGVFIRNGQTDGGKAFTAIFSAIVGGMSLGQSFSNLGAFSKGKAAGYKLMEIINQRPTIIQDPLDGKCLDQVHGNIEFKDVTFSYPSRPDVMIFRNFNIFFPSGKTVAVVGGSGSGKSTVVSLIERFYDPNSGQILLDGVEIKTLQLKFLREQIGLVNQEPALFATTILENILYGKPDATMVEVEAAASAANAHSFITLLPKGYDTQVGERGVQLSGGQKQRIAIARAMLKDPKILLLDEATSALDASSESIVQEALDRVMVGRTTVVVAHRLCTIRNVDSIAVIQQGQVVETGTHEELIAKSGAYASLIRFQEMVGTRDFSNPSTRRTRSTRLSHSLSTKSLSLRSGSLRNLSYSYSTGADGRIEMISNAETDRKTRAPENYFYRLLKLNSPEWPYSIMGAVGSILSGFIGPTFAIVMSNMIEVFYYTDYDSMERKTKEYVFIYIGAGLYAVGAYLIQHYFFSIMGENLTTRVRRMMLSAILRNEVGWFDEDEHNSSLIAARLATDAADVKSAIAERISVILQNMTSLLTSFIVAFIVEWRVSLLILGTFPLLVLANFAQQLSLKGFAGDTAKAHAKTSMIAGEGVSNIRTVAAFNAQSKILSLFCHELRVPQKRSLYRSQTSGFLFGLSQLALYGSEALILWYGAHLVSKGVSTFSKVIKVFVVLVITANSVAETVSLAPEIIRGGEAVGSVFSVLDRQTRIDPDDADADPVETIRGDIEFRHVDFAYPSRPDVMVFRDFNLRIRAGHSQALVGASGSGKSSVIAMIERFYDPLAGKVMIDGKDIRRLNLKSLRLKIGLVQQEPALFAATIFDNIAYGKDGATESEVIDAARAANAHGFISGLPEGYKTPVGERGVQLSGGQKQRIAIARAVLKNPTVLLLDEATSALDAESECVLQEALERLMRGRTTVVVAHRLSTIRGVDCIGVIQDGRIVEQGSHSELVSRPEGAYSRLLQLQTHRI


Tests used:
[1] = biological target: T1, ABCB19; test: cryo-EM structure at […] Å in nanodiscs; assay type: biochemical
[2] = substrate: Nc1ncnc2c1ncn2[C@@H]1O[C@H](COP(=O)(O)OP(=O)(O)OP(=O)(O)O)[C@@H](O)[C@H]1O; test: purified protein; assay type: biochemical, Arabidopsis thaliana; conditions: Mg2+ ATP-binding sites of the NBDs

Row | IC50 [1] | Molecule | Km [2]
1 | 890 µM | CCN(CC)c1ccc(C(=O)c2ccccc2C(=O)O)c(O)c1 [BUM, 2-[4-(Diethylamino)-2-hydroxybenzoyl]benzoic acid] | 
2 |  | ABCB19 (Arabidopsis thaliana) (protein) MSETNTTDAKTVPAEAEKKKEQSLPFFKLFSFADKFDYLLMFVGSLGAIVHGSSMPVFFLLFGQMVNGFGKNQMDLHQMVHEVSRYSLYFVYLGLVVCFSSYAEIACWMYSGERQVAALRKKYLEAVLKQDVGFFDTDARTGDIVFSVSTDTLLVQDAISEKVGNFIHYLSTFLAGLVVGFVSAWKLALLSVAVIPGIAFAGGLYAYTLTGITSKSRESYANAGVIAEQAIAQVRTVYSYVGESKALNAYSDAIQYTLKLGYKAGMAKGLGLGCTYGIACMSWALVFWYAGVFIRNGQTDGGKAFTAIFSAIVGGMSLGQSFSNLGAFSKGKAAGYKLMEIINQRPTIIQDPLDGKCLDQVHGNIEFKDVTFSYPSRPDVMIFRNFNIFFPSGKTVAVVGGSGSGKSTVVSLIERFYDPNSGQILLDGVEIKTLQLKFLREQIGLVNQEPALFATTILENILYGKPDATMVEVEAAASAANAHSFITLLPKGYDTQVGERGVQLSGGQKQRIAIARAMLKDPKILLLDEATSALDASSESIVQEALDRVMVGRTTVVVAHRLCTIRNVDSIAVIQQGQVVETGTHEELIAKSGAYASLIRFQEMVGTRDFSNPSTRRTRSTRLSHSLSTKSLSLRSGSLRNLSYSYSTGADGRIEMISNAETDRKTRAPENYFYRLLKLNSPEWPYSIMGAVGSILSGFIGPTFAIVMSNMIEVFYYTDYDSMERKTKEYVFIYIGAGLYAVGAYLIQHYFFSIMGENLTTRVRRMMLSAILRNEVGWFDEDEHNSSLIAARLATDAADVKSAIAERISVILQNMTSLLTSFIVAFIVEWRVSLLILGTFPLLVLANFAQQLSLKGFAGDTAKAHAKTSMIAGEGVSNIRTVAAFNAQSKILSLFCHELRVPQKRSLYRSQTSGFLFGLSQLALYGSEALILWYGAHLVSKGVSTFSKVIKVFVVLVITANSVAETVSLAPEIIRGGEAVGSVFSVLDRQTRIDPDDADADPVETIRGDIEFRHVDFAYPSRPDVMVFRDFNLRIRAGHSQALVGASGSGKSSVIAMIERFYDPLAGKVMIDGKDIRRLNLKSLRLKIGLVQQEPALFAATIFDNIAYGKDGATESEVIDAARAANAHGFISGLPEGYKTPVGERGVQLSGGQKQRIAIARAVLKNPTVLLLDEATSALDAESECVLQEALERLMRGRTTVVVAHRLSTIRGVDCIGVIQDGRIVEQGSHSELVSRPEGAYSRLLQLQTHRI | 1080 µM
